# Experimental data: BindingDB's records for doi:10.1016/0922-4106(95)90072-1 (Cocensys, 1995)
# pKi: −log10 of the molar value.
# Columns and labels:
# [1] = target: Gamma-aminobutyric acid receptor subunit alpha-6 (Homo sapiens, UniProt Q16445)
# [2] = target: Gamma-aminobutyric acid receptor subunit alpha-4 (Homo sapiens, UniProt P48169)
# Sequence of Gamma-aminobutyric acid receptor subunit alpha-4 (P48169 whole entry): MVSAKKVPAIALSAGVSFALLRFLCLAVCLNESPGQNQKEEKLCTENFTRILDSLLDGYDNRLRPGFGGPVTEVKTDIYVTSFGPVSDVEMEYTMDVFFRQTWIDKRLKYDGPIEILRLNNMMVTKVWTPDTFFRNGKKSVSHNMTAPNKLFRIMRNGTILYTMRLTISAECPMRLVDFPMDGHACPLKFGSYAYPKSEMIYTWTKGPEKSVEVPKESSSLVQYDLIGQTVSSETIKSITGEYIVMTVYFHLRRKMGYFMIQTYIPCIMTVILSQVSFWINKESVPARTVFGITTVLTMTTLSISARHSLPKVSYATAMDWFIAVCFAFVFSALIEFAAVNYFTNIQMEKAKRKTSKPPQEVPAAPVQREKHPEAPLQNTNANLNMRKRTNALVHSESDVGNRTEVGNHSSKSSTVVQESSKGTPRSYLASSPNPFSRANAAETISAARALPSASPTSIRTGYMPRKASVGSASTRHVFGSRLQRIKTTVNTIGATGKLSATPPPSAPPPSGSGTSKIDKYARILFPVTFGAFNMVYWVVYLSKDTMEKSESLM
# Sequence of Gamma-aminobutyric acid receptor subunit alpha-6 (Q16445 whole entry): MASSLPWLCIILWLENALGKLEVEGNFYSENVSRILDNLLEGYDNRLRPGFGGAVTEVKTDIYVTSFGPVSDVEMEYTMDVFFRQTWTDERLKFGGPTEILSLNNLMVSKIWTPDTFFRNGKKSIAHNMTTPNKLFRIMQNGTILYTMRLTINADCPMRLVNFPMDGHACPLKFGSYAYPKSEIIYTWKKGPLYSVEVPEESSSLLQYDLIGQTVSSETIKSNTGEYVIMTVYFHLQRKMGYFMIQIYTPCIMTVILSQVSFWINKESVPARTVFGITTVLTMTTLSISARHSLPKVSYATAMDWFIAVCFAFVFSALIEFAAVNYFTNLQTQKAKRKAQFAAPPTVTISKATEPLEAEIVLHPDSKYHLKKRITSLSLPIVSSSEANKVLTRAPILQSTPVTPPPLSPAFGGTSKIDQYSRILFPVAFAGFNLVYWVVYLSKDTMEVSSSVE
Compound,pKi [1],pKi [2]
COC(=O)c1cc2c(cn1)[nH]c1ccccc12,5.49,6.51
O=c1c2cnc3ccccc3c2[nH]n1-c1ccc(Cl)cc1,6.54,7.45
"COc1ccc(-n2[nH]c3c(cnc4ccccc43)c2=O)cc1 [2-(4-Methoxy-phenyl)-2,5-dihydro-pyrazolo[4,3-c]quinolin-3-one (CGS 9895)]",7.36,8.17
"CC(C)(C)OC(=O)c1ncn2c1C1CCCN1C(=O)c1c(Br)cccc1-2 (stereo not drawn) [8-Bromo-7-oxo-3b,4,5,6-tetrahydro-7H-2,6a,11b-triaza-benzo[g]cyclopenta[e]azulene-3-carboxylic acid tert-butyl ester]",7.26,7.27
CNC(=O)c1cc2c(cn1)[nH]c1ccccc12 [CAS_4375],5.60,6.52
CCc1c(C(=O)OC)ncc2[nH]c3cc(OC)c(OC)cc3c12 [NSC_104999],6.82,7.85
CCOC(=O)c1ncn2c1CN(C)C(=O)c1cc(N=[N+]=[N-])ccc1-2 [RO-154513],7.93,–
